The results in this text go back to patent US7446199B2, “Compositions useful as inhibitors of protein kinases” (Vertex Pharmaceuticals Incorporated, priority 2003, dated 2008).

Assay type in all cases: biochemical
In one assay the target is T1, TAK1A-TAB fusion protein (Homo sapiens, UniProt O43318).
T1 construct: using 20 nM TAK1A-TAB fusion protein
T1 sequence (O43318 with tags, fused parts or gaps isoform O43318-2 limits assumed): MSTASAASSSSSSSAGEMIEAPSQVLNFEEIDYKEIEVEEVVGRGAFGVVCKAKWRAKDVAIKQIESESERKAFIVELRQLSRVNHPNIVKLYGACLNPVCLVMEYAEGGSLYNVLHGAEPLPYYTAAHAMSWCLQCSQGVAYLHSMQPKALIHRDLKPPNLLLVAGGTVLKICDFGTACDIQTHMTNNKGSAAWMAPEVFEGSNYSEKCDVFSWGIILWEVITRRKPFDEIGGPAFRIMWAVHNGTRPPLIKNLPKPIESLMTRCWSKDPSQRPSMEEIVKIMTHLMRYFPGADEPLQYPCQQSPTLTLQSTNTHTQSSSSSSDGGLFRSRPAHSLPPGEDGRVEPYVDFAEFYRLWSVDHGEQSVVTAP
The experiment in a line: TAK-1 inhibition assay, radiometric filter binding assay. The conditions noted are these: 50 μM ATP, 12 μM bovine myelin basic protein, 20 nM TAK1A-TAB fusion protein. As to the method:
Compounds were screened for their ability to inhibit TAK1A kinase activity using a radiometric filter binding assay. Reactions were carried out in a solution containing Buffer A (100 mM HEPES (pH 7.5), 10 mM MgCl2), 25 mM NaCl, 2 mM DTT, and 1.5% DMSO. Final substrate concentrations in the assay were 50 μM ATP (a mixture of unlabeled ATP (Sigma Chemicals, St Louis, Mo.) and ^33P-labeled ATP (PerkinElmer Life Sciences, Boston, Mass.) for a final specific activity of 50 Ci/mol), and 12 μM bovine myelin basic protein (MBP, Vertex Pharmaceuticals, Cambridge, Mass.). Reactions were carried out at ambient temperature (˜20° C.) using 20 nM TAK1A-TAB fusion protein. Under these conditions the extent of reaction is linear with time for a period of 2 hours.
A test compound of the present invention (1 μL in DMSO) was combined with ATP and Buffer A in a final volume of 47 μL in a 96 well plate. Typically, a 6 point titration was conducted by preparing serial dilutions (from 10 mM compound stocks) with DMSO of the test compounds of the present invention in daughter plates, for final concentrations spanning 0.046 μM to 3.73 μM. The reaction was initiated by the addition of 20 μl of an enzyme stock solution consisting of TAK1A-TAB fusion (described by Sugita, T. et al. in Biochem. Biophys. Res. Comm. 2002, 297, 1277-1281), MBP, Buffer A, NaCl, and DTT. The reaction was allowed to proceed for two hours at ambient temperature, then quenched with an equal volume of 10 mM unlabeled ATP in 10% trichloroacetic acid. A 110 μL aliquot of the quenched reaction was transferred to a Multiscreen PH filter plate (Millipore, Billerica, Mass.) and allowed to incubate at ambient temperature overnight (typically 16-20 hours). Following incubation the filter plates were washed with 3×150 μL aliquots of 5% trichloroacetic acid using a modified Biotek Elx405 plate washer. A 70 μL aliquot of Microscint 20 scintillation fluid (PerkinElmer) was added to each well, and the plate was then sealed and read on a TopCount NXT microplate scintillation counter (PerkinElmer). The Ki values were determined from the rate data as a function of inhibitor concentration.

The next assay addresses SYK (Homo sapiens, UniProt P43405). The experiment in a line: SYK enzyme assay, coupled enzyme assay. The conditions noted are these: 200 μM ATP, 4 μM poly Gly-Tyr peptide, 30° C. The gist of the method: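 Pyruvate kinase/lactate dehydrogenase-coupled NADH assay in HEPES pH 7.5 with MgCl2, NaCl, DTT and 1.5% DMSO, using 200 μM ATP, 4 μM poly Gly-Tyr and 25 nM enzyme. Compound at 30 μM final was preincubated ~10 min at 30 °C. Rates were read over 5 min at 30 °C and Ki derived.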

A further assay deals with T2, Aurora-2 (Homo sapiens, UniProt O14965).
T2 construct: addition of 10 μL of Aurora-2 stock solution to give a final concentration of 70 nM
T2 sequence (O14965 1-403): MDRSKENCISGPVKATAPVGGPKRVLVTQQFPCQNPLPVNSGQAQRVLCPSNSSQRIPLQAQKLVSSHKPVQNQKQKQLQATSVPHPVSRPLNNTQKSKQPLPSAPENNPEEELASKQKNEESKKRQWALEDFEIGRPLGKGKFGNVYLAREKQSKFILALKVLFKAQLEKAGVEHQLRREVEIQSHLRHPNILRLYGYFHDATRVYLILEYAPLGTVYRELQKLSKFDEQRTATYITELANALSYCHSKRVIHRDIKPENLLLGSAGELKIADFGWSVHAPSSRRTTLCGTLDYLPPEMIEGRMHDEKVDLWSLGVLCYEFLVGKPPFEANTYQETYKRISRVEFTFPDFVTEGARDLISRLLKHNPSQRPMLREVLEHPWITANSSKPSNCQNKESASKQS
The experiment in a line: Inhibition of AUR-2, coupled enzyme assay. The conditions noted are these: 70 nM Aurora-2, 800 μM peptide LRRASLG, 30° C. As to the method:
Compounds are screened in the following manner for their ability to inhibit Aurora-2 using a standard coupled enzyme assay (Fox et al. (1998) Protein Sci 7, 2249). To an assay stock buffer solution containing 0.1M HEPES 7.5, 10 mM MgCl2, 1 mM DTT, 25 mM NaCl, 2.5 mM phosphoenolpyruvate, […], […], […], and 800 μM peptide (LRRASLG, American Peptide, Sunnyvale, Calif.) is added a DMSO solution of a compound of the present invention to a final concentration of 30 μM. The resulting mixture is incubated at 30° C. for 10 min. The reaction was initiated by the addition of 10 μL of Aurora-2 stock solution to give a final concentration of 70 nM in the assay. The rates of reaction are obtained by monitoring absorbance at 340 nm over a 5 minute read time at 30° C. using a BioRad Ultramark plate reader (Hercules, Calif.). The Ki values are determined from the rate data as a function of inhibitor concentration.

Bounds are passed on as bounds.

Molecule `CN1CCN(C(=O)[C@H]2C[C@@H]2c2cnc3[nH]cc(-c4oncc4-c4cccc(F)c4F)c3c2)CC1` (relative stereo) [Compound 142, trans-(2-{3-[4-(2,3-Difluoro-phenyl)-isoxazol-5-yl]-1H-pyrrolo[2,3-b]pyridin-5-yl}-cyclopropyl)-(4-methyl-piperazin-1-yl)-methanone] showed a Ki on TAK1A-TAB fusion protein of 200 to 1000 nM.

As to `c1ccc(-c2cnoc2-c2c[nH]c3ncccc23)cc1` [Compound 35, 3-[4-Phenyl-isoxazol-5-yl]-1H-pyrrolo[2,3-b]pyridine], the Ki on SYK was 1000 to 12500 nM. Same read-out and setting: next, `Fc1ccc(F)c(-c2cnoc2-c2c[nH]c3ncccc23)c1F` [Compound 41, 3-[4-(2,3,6-Trifluoro-phenyl)-isoxazol-5-yl]-1H-pyrrolo [2,3-b]pyridine]: 1000 to 12500 nM.

As for `Fc1cccc(-c2cnoc2-c2c[nH]c3ncc(Cl)cc23)c1F` [Compound 44, 3-[4-(2,3-Difluoro-phenyl)-isoxazol-5-yl]-5-chloro-1H-pyrrolo[2,3-b]pyridine], the figures for the Ki at SYK and on Aurora-2 were 1000 to 12500 nM and less than 200 nM, respectively.

Take `Cc1cnc2[nH]cc(-c3oncc3-c3cccc(F)c3F)c2c1` [Compound 46, 3-[4-(2,3-Difluoro-phenyl)-isoxazol-5-yl]-5-methyl-1H-pyrrolo[2,3-b]pyridine]: the Ki on Aurora-2 lay in the range of 200 to 1000 nM; at TAK1A-TAB fusion protein, 1000 to 12500 nM. Molecule `Fc1cccc(-n2cnnc2-c2c[nH]c3ncc(-c4ccc(N5CCNCC5)nc4)cc23)c1F` [Compound 111, 3-[4-(2,3-Difluoro-phenyl)-4H-[1,2,4]triazol-3-yl]-5-(6-piperazin-1-yl-pyridin-3-yl)-1H-pyrrolo[2,3-b]pyridine] displayed a Ki at TAK1A-TAB fusion protein of 1000 to 12500 nM. Consider `CN(C)C1CCC(c2cnc3[nH]cc(-c4oncc4-c4cccc(F)c4F)c3c2)CC1` (stereo not drawn) [Compound 141, (4-{3-[4-(2,3-Difluoro-phenyl)-isoxazol-5-yl]-1H-pyrrolo[2,3-b]pyridin-5-yl}-cyclohexyl)-dimethylamine], for which, on TAK1A-TAB fusion protein, the Ki lay within 200 to 1000 nM.

For the molecule `NC(=O)c1ccc(-c2cnc3[nH]cc(-c4oncc4-c4cccc(F)c4F)c3c2)cc1` [Compound 153], the Ki at Aurora-2 was less than 200 nM. Consider `C[N+]1(C)CCN(c2ccc(-c3cnc4[nH]cc(-c5oncc5-c5cccc(F)c5F)c4c3)cc2)CC1` [Compound 155], for which the Ki on SYK was 200 to 1000 nM; on TAK1A-TAB fusion protein, less than 200 nM.
